{"source": "paper PMC8850191", "about": "“Mechanisms of inhibition and activation of extrasynaptic αβ GABAA receptors” (Nature, 2022)", "molecules": {"B1": {"name": "α-Cobratoxin (protein)", "chain": "IRCFITPDITSKDCPNGHVCYTKTWCDAFCSIRGKRVDLGCAATCPTVKTGVDIQCCSTDNCNPFPTRKRP"}}, "key": {"α1β3γ2WT [1]": {"target": "T1, α1β3γ2WT (Homo sapiens, UniProt P14867+P18507+P28472)", "T1 construct": "expressed in transfected cells; host or cells: HEK 293 cells, transient calcium-phosphate transfection, α1:β3:γ2:GFP 1:1:3:1", "T1 sequence (P18507 40-475, one chain of several)": "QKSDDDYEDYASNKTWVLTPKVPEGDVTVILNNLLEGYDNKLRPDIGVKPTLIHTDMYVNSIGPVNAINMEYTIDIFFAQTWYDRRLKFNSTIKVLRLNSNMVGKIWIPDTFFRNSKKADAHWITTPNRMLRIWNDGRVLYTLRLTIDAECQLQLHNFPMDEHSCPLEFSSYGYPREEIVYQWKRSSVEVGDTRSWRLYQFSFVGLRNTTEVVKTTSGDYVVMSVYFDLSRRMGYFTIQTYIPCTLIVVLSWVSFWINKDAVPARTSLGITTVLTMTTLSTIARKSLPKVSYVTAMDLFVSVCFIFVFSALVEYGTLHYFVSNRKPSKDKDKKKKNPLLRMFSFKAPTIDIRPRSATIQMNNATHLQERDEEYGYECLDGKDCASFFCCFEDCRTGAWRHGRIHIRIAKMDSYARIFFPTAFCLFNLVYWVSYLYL", "assay": "Probability of activation (PA), whole-cell, saturating GABA versus GABA + 1 mM pentobarbitone", "format": "cell-based", "details": "n = 6", "quoted_text": "(§1) Whole-cell responses were recorded in patch clamp experiments from HEK 293 cells transiently transfected with human GABAA α1β3 (WT), α1GLIVIβ3BRIL (α1β3cryo-EM; see ‘Constructs’) or α1β3γ2 (WT). HEK 293 cells were grown in DMEM supplemented with 10% v/v fetal bovine serum, 100 U ml^−1 penicillin-G and 100 µg ml^−1 streptomycin (37 °C; 95% air/5% CO2), and transfected using a calcium-phosphate precipitation method with α1:β3:GFP or α1:β3:γ2:GFP cDNAs in a ratio of 1:1:1 or 1:1:3:1, respectively, 12–24 h before experimentation. Recordings were performed with cells continuously perfused with Krebs solution composed of (mM): 140 NaCl, 4.7 KCl, 1.2 MgCl2, 2.52 CaCl2, 11 Glucose and 5 HEPES (pH 7.4; ~300 mOsm). Patch pipettes (TW150F-4; WPI; 3–4 MΩ) were filled with an internal solution containing (mM): 140 KCl, 1 MgCl2, 11 EGTA, 10 HEPES,1 CaCl2, 2 K-ATP (pH 7.2; ~305 mOsm). […] Cells were voltage-clamped at −40 mV with an Axopatch 200B amplifier (Molecular Devices), currents were digitized at 50 kHz via a Digidata 1322A (Molecular Devices), filtered at 5 kHz (−36 dB), and acquired using Clampex 10.2 (Molecular Devices). Series resistance was compensated at 60–70% (lag time 10 μs)."}, "human GABAA α1β3 (WT) [2]": {"target": "T2, human GABAA α1β3 (WT) (Homo sapiens, UniProt P14867+P28472)", "T2 sequence (P14867 28-456)": "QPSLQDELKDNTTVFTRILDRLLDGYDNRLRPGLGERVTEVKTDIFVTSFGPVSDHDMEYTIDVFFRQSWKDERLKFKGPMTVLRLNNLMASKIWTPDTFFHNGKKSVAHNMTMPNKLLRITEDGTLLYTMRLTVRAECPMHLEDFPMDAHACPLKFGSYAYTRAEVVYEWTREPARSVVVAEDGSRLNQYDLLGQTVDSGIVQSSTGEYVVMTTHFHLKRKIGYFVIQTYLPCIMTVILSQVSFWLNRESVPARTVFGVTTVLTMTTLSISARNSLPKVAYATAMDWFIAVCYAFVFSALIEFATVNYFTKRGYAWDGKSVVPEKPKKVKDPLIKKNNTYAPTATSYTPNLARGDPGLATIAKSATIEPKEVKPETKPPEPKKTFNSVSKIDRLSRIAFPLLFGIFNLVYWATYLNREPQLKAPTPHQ", "T2 sequence (P28472 26-473)": "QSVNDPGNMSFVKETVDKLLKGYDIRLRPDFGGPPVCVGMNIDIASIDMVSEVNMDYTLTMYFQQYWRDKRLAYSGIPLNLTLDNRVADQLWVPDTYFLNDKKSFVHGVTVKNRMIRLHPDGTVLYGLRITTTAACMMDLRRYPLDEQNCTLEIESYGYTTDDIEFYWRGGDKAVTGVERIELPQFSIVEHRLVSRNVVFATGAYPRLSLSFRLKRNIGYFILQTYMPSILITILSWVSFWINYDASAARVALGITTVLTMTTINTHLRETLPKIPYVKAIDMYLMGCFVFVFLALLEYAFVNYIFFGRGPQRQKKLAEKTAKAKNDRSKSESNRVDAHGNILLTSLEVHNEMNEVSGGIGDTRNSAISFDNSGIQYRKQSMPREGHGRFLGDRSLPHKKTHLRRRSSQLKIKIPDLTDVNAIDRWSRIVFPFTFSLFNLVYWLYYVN", "assay": "Whole-cell patch clamp, GABA concentration response, HEK 293 cells", "format": "cell-based", "set-up": "expressed in transfected cells; host or cells: HEK 293 cells, transient calcium-phosphate transfection, α1:β3:GFP 1:1:1", "quoted_text": "as §1\n(§2) Peak current responses and desensitization rates were obtained using Clampfit 10.2 (Molecular Devices)."}, "α1β3γ2WT [3]": {"target": "T1, α1β3γ2WT", "assay": "GABA concentration used for single channel recording (~EC95)", "format": "cell-based", "details": "concentration used for single channel recordings", "procedure": "Single GABA-activated channel currents were recorded in outside-out patches from transfected HEK 293 cells at –70 mV holding potential. Channel currents were recorded using an Axopatch 200B and filtered at 5 kHz (4-pole Bessel filter) before digitizing at 20 kHz with a Digidata 1322A. The fixed time resolution of the system was set at 80 μs. WinEDR was used for analysing single channel data. The single-channel current was determined from compiling channel current amplitude histograms and fitting Gaussian components to define the mean current, s.d. and the total area of the component. […] Individual open and closed dwell times were measured using a 50% threshold cursor applied to the main single channel current amplitude in each patch. The subsequent detection of open and closed events formed the basis of an idealized single channel record used for compiling the dwell time distributions. Frequency distributions were constructed from the measured individual open and closed times and analysed by fitting a mixture of exponentials, defined by: y(t)=∑i=1nAi/τi×e^(−t/τi) where Ai is the area of the ith component to the distribution and τi represents the corresponding exponential time constant. […] An F-test determined the optimal number of exponential components that were required to fit the individual dwell time distributions. […]"}, "α1β3": {"tested_on": "α1β3", "set-up": "method as in earlier work", "details": "muscimol versus muscimol + propofol; ref 2020 Akk G Steinbach JH, PMID:32873746; cited from earlier work"}, "[4]": {"target": "α1β3 cryo-EM construct (α1β3CryoEM) (Homo sapiens, UniProt P14867+P28472, DEL344-414/G341Q/R340S/S415R/S417A/V416A/Y342P)", "sequence (P14867 with tags, fused parts or gaps R340S/G341Q/Y342P/DEL344-414/S415R/V416A/S417A)": "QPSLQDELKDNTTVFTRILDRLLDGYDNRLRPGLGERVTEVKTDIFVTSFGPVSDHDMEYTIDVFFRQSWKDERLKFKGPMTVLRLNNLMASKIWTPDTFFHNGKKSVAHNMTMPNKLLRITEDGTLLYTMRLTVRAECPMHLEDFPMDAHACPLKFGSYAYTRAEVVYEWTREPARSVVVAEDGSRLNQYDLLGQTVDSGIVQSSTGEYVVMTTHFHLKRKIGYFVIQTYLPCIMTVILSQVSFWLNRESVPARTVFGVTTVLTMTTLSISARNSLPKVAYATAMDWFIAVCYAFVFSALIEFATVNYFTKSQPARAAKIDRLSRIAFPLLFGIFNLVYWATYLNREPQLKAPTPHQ", "sequence (P28472 with tags, fused parts or gaps, stated change not applied)": "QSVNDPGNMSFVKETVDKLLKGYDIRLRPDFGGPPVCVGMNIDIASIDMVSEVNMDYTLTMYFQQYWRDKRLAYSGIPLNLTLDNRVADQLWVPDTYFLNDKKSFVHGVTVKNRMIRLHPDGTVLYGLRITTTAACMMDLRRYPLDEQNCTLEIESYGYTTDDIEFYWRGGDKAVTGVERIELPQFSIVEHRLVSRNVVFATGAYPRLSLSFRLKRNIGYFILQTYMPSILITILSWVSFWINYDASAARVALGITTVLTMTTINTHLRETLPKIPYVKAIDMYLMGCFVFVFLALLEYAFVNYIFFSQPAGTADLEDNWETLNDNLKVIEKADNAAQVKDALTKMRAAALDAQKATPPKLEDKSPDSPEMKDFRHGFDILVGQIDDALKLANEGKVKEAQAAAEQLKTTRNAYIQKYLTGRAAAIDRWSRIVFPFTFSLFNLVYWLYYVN", "details": "for IC50: mean pIC50 converted", "source_text": "The α1 intracellular M3–M4 loop amino acids 313–391 (RGYA…NSVS) were substituted by the SQPARAA sequence[46]. […] The mature engineered α1 construct with a 1D4 purification tag derived from bovine rhodopsin ([sequence]) that is recognized by the Rho-1D4 monoclonal antibody (University of British Columbia)[47],[48] was cloned into the pHLsec vector after the vector secretion signal[49], ending [sequence]. […] The engineered β3 construct was cloned into pHLsec after the vector secretion sequence without any tags.\nas §1\n(§3) For free Zn^2+ concentration experiments, the Zn^2+ chelator tricine was used to precisely control Zn^2+ concentration and eliminate background Zn^2+ contamination. Krebs solution was supplemented with 10 mM tricine and pH corrected to 7.4.\nas §2"}, "human GABAA α1β3 (WT) [5]": {"target": "T2, human GABAA α1β3 (WT)", "assay": "Whole-cell patch clamp, Zn2+ inhibition of GABA currents, HEK 293 cells", "format": "cell-based", "set-up": "expressed in transfected cells; host or cells: HEK 293 cells, transient calcium-phosphate transfection, α1:β3:GFP 1:1:1", "quoted_text": "as §1, §3, §2"}, "αβδ receptors": {"tested_on": "αβδ receptors", "details": "one β-subunit His replaced by Ser (δ-subunit), relative to αβ; cited from earlier work"}, "αβγ receptors": {"tested_on": "αβγ receptors", "details": "one β-subunit His replaced by Ile (γ-subunit), relative to αβ; cited from earlier work"}, "α2-GABAAR subunit": {"tested_on": "α2-GABAAR subunit", "details": "Lys in α2 at the position of α1 Ser69; cited from earlier work"}, "GABA-A receptors": {"tested_on": "GABA-A receptors", "details": "author rebuttal, peer review file; reference not given; cited from earlier work"}, "[6]": {"details": "66 nM free Zn2+ (tricine-controlled), α1β3 cryo-EM construct, mean ± s.e.m., n = 7"}, "[7]": {"details": "66 nM free Zn2+ (tricine-controlled), wild-type, mean ± s.e.m., n = 7"}}, "note": "Where “and” joins values, the source holds several entries; their conditions need not be identical. Identical values can stand only once. Like-named read-outs stand apart in the source and are kept apart here."}
{"molecule": "NCCCC(=O)O", "note": "[GABA, γ-aminobutyric acid]", "values": [{"measurement": "probability of activation (PA)", "setting": "α1β3γ2WT [1]", "result": "> 0.9 and 0.94 ± 0.03"}, {"measurement": "GABA EC20", "setting": "human GABAA α1β3 (WT) [2]; submaximal (20%) response, used for wild-type and cryo-EM construct", "result": 1, "unit": "µM"}, {"measurement": "GABA ~EC95", "setting": "human GABAA α1β3 (WT) [2]; α1β3WT, concentration used for single channel recordings", "result": "~30", "unit": "µM"}, {"measurement": "GABA ~EC95", "setting": "α1β3γ2WT [3]", "result": "~100", "unit": "µM"}]}
{"molecule": "NCc1cc(=O)[nH]o1", "note": "[muscimol]", "values": [{"measurement": "probability of activation (PA)", "setting": "α1β3", "result": "~ 0.6"}]}
{"molecule": "[Zn+2]", "note": "[Zn^2+]", "values": [{"measurement": "inhibition of EC20 (1 μM) GABA response", "setting": "[4]; [6]", "result": "32 ± 2", "unit": "%"}, {"measurement": "inhibition of maximal (1 mM) GABA response", "setting": "[4]; [6]", "result": "32 ± 4", "unit": "%"}, {"measurement": "inhibition", "setting": "[4]; 20 μM Zn2+, Extended Data Fig. 5a (shows WT and cryo-EM construct)", "result": "approximately 90%"}, {"measurement": "IC50", "setting": "[4]; read-out: IC50 Zn2+ inhibition, α1β3CryoEM, absence of tricine", "result": 220, "unit": "nM"}, {"measurement": "IC50", "setting": "[4]; read-out: IC50 free Zn2+ inhibition, α1β3CryoEM, 10 mM tricine", "result": 230, "unit": "nM"}, {"measurement": "pIC50 free Zn2+ inhibition", "setting": "[4]; α1β3CryoEM, 10 mM tricine, n = 7", "result": "6.64 ± 0.2"}, {"measurement": "pIC50 Zn2+ inhibition", "setting": "[4]; α1β3CryoEM, absence of tricine, n = 6", "result": "6.66 ± 0.11"}, {"measurement": "inhibition of EC20 (1 μM) GABA response", "setting": "human GABAA α1β3 (WT) [5]; [7]", "result": "38 ± 2", "unit": "%"}, {"measurement": "inhibition of maximal (1 mM) GABA response", "setting": "human GABAA α1β3 (WT) [5]; [7]", "result": "36 ± 6", "unit": "%"}, {"measurement": "IC50", "setting": "human GABAA α1β3 (WT) [5]; α1β3WT, 10 mM tricine, mean pIC50 converted, read-out: IC50 free Zn2+ inhibition", "result": 149, "unit": "nM"}, {"measurement": "pIC50 free Zn2+ inhibition", "setting": "human GABAA α1β3 (WT) [5]; α1β3WT, 10 mM tricine, n = 8", "result": "6.83 ± 0.1"}, {"measurement": "reduction of Zn2+ sensitivity", "setting": "αβδ receptors", "result": 50, "unit": "fold"}, {"measurement": "reduction of Zn2+ sensitivity", "setting": "αβγ receptors", "result": 200, "unit": "fold"}]}
{"molecule": "B1", "values": [{"measurement": "reduction of sensitivity to α-CBTx", "setting": "α2-GABAAR subunit", "result": "fivefold"}, {"measurement": "sensitivity of GABA-A receptors", "setting": "GABA-A receptors", "result": "sub-micromolar"}]}
